Measured values published in PubChem BioAssay (NCI).
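Here, GI50 denotes the concentration required for 50% inhibition of growth. TGI: concentration producing complete growth inhibition.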

Assays:
Experiment in all cases: growth of human tumour cells (NCI), 384-well format
786-0 renal = tested on: 786-0 renal
A498 renal = tested on: A498 renal
A549 NSCLC = tested on: A549 NSCLC
ACHN renal = tested on: ACHN renal
BT-549 breast = tested on: BT-549 breast
CAKI-1 renal = tested on: CAKI-1 renal
CCRF-CEM leukemia = tested on: CCRF-CEM leukemia
COLO 205 colon = tested on: COLO 205 colon
DU-145 prostate = tested on: DU-145 prostate
EKVX NSCLC = tested on: EKVX NSCLC
HCC-2998 colon = tested on: HCC-2998 colon
HCT-116 colon = tested on: HCT-116 colon
HCT-15 colon = tested on: HCT-15 colon
HL-60(TB) leukemia = tested on: HL-60(TB) leukemia
HOP-62 NSCLC = tested on: HOP-62 NSCLC
HOP-92 NSCLC = tested on: HOP-92 NSCLC
HS 578T breast = tested on: HS 578T breast
HT29 colon = tested on: HT29 colon
IGROV1 ovarian = tested on: IGROV1 ovarian
KM12 colon = tested on: KM12 colon
LOX IMVI melanoma = tested on: LOX IMVI melanoma
M14 melanoma = tested on: M14 melanoma
MALME-3M melanoma = tested on: MALME-3M melanoma
MCF7 breast = tested on: MCF7 breast
MDA-MB-231 breast = tested on: MDA-MB-231 breast
MDA-MB-435 melanoma = tested on: MDA-MB-435 melanoma
MDA-MB-468 breast = tested on: MDA-MB-468 breast
MOLT-4 leukemia = tested on: MOLT-4 leukemia
NCI-H226 lung = tested on: NCI-H226 lung
NCI-H23 lung = tested on: NCI-H23 lung
NCI-H322M lung = tested on: NCI-H322M lung
NCI-H460 NSCLC = tested on: NCI-H460 NSCLC
NCI-H522 lung = tested on: NCI-H522 lung
NCI/ADR-RES ovarian = tested on: NCI/ADR-RES ovarian
OVCAR-3 ovarian = tested on: OVCAR-3 ovarian
OVCAR-4 ovarian = tested on: OVCAR-4 ovarian
OVCAR-5 ovarian = tested on: OVCAR-5 ovarian
OVCAR-8 ovarian = tested on: OVCAR-8 ovarian
PC-3 prostate = tested on: PC-3 prostate
RPMI-8226 leukemia = tested on: RPMI-8226 leukemia
RXF 393 renal = tested on: RXF 393 renal
SF-268 CNS = tested on: SF-268 CNS
SF-295 CNS = tested on: SF-295 CNS
SF-539 CNS = tested on: SF-539 CNS
SK-MEL-28 melanoma = tested on: SK-MEL-28 melanoma
SK-MEL-5 melanoma = tested on: SK-MEL-5 melanoma
SK-OV-3 ovarian = tested on: SK-OV-3 ovarian
SN12C renal = tested on: SN12C renal
SNB-19 CNS = tested on: SNB-19 CNS
SNB-75 CNS = tested on: SNB-75 CNS
SR leukemia = tested on: SR leukemia
SW-620 colon = tested on: SW-620 colon
T-47D breast = tested on: T-47D breast
TK-10 renal = tested on: TK-10 renal
U251 glioblastoma = tested on: U251 glioblastoma
UACC-257 melanoma = tested on: UACC-257 melanoma
UACC-62 melanoma = tested on: UACC-62 melanoma
UO-31 renal = tested on: UO-31 renal

## Cc1cnc(Nc2ccc(OCCN3CCCC3)cc2)nc1Nc1cccc(S(=O)(=O)NC(C)(C)C)c1
786-0 renal
  GI50: 1270 nM
  TGI: 2550 nM
A498 renal
  GI50: 909 nM
  TGI: 3090 nM
A549 NSCLC
  GI50: 1370 nM
  TGI: 2730 nM
ACHN renal
  GI50: 1300 nM
  TGI: 2850 nM
BT-549 breast
  GI50: 1620 nM
  TGI: 3010 nM
CAKI-1 renal
  GI50: 593 nM
  TGI: 1710 nM
CCRF-CEM leukemia
  GI50: 1400 nM
  TGI: 2750 nM
COLO 205 colon
  GI50: 1820 nM
  TGI: 3280 nM
DU-145 prostate
  GI50: 1080 nM
  TGI: 2870 nM
EKVX NSCLC
  GI50: 1770 nM
  TGI: 3980 nM
HCC-2998 colon
  GI50: 1390 nM
  TGI: 2860 nM
HCT-116 colon
  GI50: 635 nM
  TGI: 2070 nM
HCT-15 colon
  GI50: 1660 nM
  TGI: 4310 nM
HL-60(TB) leukemia
  GI50: 464 nM
  TGI: 1340 nM
HOP-62 NSCLC
  GI50: 2000 nM
  TGI: 4870 nM
HOP-92 NSCLC
  GI50: 1020 nM
  TGI: 2220 nM
HS 578T breast
  GI50: 837 nM
  TGI: 2270 nM
HT29 colon
  GI50: 1420 nM
  TGI: 2790 nM
IGROV1 ovarian
  GI50: 1080 nM
  TGI: 2650 nM
KM12 colon
  GI50: 418 nM
  TGI: 5550 nM
LOX IMVI melanoma
  GI50: 815 nM
  TGI: 2050 nM
M14 melanoma
  GI50: 1020 nM
  TGI: 2500 nM
MALME-3M melanoma
  GI50: 1450 nM
  TGI: 3040 nM
MCF7 breast
  GI50: 1160 nM
  TGI: 2680 nM
MDA-MB-231 breast
  GI50: 1060 nM
  TGI: 2350 nM
MDA-MB-435 melanoma
  GI50: 2610 nM
  TGI: 11600 nM
MDA-MB-468 breast
  GI50: 1200 nM
  TGI: 2640 nM
MOLT-4 leukemia
  GI50: 428 nM
  TGI: 1480 nM
NCI-H226 lung
  GI50: 740 nM
  TGI: 1940 nM
NCI-H23 lung
  GI50: 1450 nM
  TGI: 3350 nM
NCI-H322M lung
  GI50: 1240 nM
  TGI: 7230 nM
NCI-H460 NSCLC
  GI50: 1880 nM
  TGI: 11700 nM
NCI-H522 lung
  GI50: 523 nM
  TGI: 1680 nM
NCI/ADR-RES ovarian
  GI50: 6430 nM
  TGI: 18300 nM
OVCAR-3 ovarian
  GI50: 1270 nM
  TGI: 4510 nM
OVCAR-4 ovarian
  GI50: 1600 nM
  TGI: 3650 nM
OVCAR-5 ovarian
  GI50: 1670 nM
  TGI: 5630 nM
OVCAR-8 ovarian
  GI50: 1540 nM
  TGI: 2920 nM
PC-3 prostate
  GI50: 1440 nM
  TGI: 8680 nM
RPMI-8226 leukemia
  GI50: 624 nM
  TGI: 1780 nM
RXF 393 renal
  GI50: 707 nM
  TGI: 1660 nM
SF-268 CNS
  GI50: 1900 nM
  TGI: 4220 nM
SF-295 CNS
  GI50: 2740 nM
  TGI: 8670 nM
SF-539 CNS
  GI50: 1510 nM
  TGI: 2860 nM
SK-MEL-28 melanoma
  GI50: 3610 nM
  TGI: 11600 nM
SK-MEL-5 melanoma
  GI50: 1320 nM
  TGI: 2630 nM
SK-OV-3 ovarian
  GI50: 604 nM
  TGI: 1840 nM
SN12C renal
  GI50: 1540 nM
  TGI: 4490 nM
SNB-19 CNS
  GI50: 2970 nM
  TGI: 8890 nM
SNB-75 CNS
  GI50: 869 nM
  TGI: 2160 nM
SR leukemia
  GI50: 372 nM
  TGI: 1360 nM
SW-620 colon
  GI50: 1570 nM
  TGI: 3640 nM
T-47D breast
  GI50: 1780 nM
  TGI: 5210 nM
TK-10 renal
  GI50: 1550 nM
  TGI: 3190 nM
U251 glioblastoma
  GI50: 2570 nM
  TGI: 12400 nM
UACC-257 melanoma
  GI50: 1730 nM
  TGI: 3120 nM
UACC-62 melanoma
  GI50: 1000 nM
  TGI: 2670 nM
UO-31 renal
  GI50: 1770 nM
  TGI: 3170 nM
